Laboratory results as given in patent US9951040B2, “1,3,5 -triazine based PI3K inhibitors as anticancer agents and a process for the preparation thereof” (Council of Scientific and Industrial Research, priority 2014, dated 2018).
Like-named read-outs stand apart in the source and are kept apart here.

Target: PI3K alpha (Homo sapiens, UniProt P42336)
Assay: PI3K-α assay (ADP-Glo enzyme inhibition)
Type: biochemical
Conditions: at 500 nm
Procedure: Compounds were evaluated for their ability to inhibit class I PI3-kinase enzyme alpha as given below. PI3K-α Assay: PI3K alpha (diluted in 12.5 mM Glycine-NaOH (pH 8.5), 50 mM KCl, 2.5 mM MgCl2, 1 mM DTT, 0.05% CHAPS) is assayed in total volume of 20 ul containing 12.5 mM glycine-NaOH (pH 8.5), 50 mM KCl, 2.5 mM MgCl2, 1 mM DTT, 0.05% CHAPS, 0.01 mM ATP and 0.05 mM diC8 PIP2. The enzyme is assayed for 80 min after which 20 ul of ADP-Glo reagent is added. After a further incubation of 40 min, 40 ul of Kinase Detection Buffer is added. The assays are incubated for 40 min and then read on PerkinElmer Envision for 1 sec/well.

[1] = read-out: In vitro PI3K α % of inhibition
[2] = read-out: inhibition against PI3K alpha

Chain of PI3K alpha (P42336 whole entry, species assumed): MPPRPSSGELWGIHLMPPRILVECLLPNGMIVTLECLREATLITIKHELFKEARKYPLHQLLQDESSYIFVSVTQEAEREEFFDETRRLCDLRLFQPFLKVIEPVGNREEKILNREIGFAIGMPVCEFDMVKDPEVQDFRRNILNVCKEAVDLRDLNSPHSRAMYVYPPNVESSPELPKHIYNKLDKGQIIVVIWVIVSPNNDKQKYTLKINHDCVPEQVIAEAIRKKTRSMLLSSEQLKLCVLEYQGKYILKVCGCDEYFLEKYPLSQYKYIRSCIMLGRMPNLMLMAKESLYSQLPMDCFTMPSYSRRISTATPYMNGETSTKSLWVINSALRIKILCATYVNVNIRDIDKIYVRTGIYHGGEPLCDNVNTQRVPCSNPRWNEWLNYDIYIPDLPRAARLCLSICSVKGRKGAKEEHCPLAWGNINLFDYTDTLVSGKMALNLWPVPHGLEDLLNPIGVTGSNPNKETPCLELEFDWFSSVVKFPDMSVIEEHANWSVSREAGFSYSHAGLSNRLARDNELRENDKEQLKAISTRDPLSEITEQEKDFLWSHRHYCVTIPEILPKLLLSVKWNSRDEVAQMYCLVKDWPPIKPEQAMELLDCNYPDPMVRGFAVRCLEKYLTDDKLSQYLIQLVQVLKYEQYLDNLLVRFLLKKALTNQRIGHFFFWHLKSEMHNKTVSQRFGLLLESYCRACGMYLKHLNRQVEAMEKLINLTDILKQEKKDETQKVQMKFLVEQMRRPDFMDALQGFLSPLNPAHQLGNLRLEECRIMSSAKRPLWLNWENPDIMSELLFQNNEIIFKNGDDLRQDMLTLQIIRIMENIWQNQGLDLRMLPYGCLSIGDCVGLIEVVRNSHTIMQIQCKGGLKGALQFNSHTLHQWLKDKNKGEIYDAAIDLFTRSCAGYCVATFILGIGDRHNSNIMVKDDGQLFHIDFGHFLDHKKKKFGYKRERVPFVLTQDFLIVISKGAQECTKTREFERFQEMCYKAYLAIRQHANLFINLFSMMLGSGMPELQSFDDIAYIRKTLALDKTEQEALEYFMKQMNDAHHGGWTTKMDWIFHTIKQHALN
Chain of PI3K alpha (P27986 whole entry partner, species assumed): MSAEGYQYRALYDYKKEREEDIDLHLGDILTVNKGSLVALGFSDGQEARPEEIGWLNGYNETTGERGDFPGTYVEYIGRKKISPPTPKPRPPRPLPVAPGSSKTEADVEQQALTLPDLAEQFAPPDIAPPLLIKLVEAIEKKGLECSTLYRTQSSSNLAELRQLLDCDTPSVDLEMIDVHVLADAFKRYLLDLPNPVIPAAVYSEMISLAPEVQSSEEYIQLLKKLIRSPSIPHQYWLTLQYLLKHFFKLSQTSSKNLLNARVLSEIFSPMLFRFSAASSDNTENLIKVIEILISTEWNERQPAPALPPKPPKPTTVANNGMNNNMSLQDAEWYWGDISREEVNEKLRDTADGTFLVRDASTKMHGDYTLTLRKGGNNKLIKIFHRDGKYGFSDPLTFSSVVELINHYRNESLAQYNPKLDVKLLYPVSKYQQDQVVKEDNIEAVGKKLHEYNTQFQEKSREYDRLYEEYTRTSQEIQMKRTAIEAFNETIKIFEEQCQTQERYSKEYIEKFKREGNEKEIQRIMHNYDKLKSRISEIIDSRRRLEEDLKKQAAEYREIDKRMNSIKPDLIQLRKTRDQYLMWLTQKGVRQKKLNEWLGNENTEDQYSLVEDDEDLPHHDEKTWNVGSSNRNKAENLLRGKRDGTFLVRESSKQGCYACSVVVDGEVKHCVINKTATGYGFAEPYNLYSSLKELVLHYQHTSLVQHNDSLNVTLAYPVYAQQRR

| inhibition at 0.5 µM [1] [%] | inhibition at 0.5 µM [2] [%] | Compound |
| --- | --- | --- |
| > 70 | > 70 | Fc1cccc(OC2CCN(c3nc(N4CCOCC4)nc(-n4c(C(F)F)nc5ccccc54)n3)CC2)c1 [1B8, 4-(4-(2-(difluoromethyl)-1H-benzo[d]imidazol-1-yl)-6-(4-(3-fluorophenoxy)piperidin-1-yl)-1,3,5-triazin-2-yl)morpholine] |
| 50 to 70 | – | Fc1ccccc1OC1CCN(c2nc(N3CCOCC3)nc(-n3c(C(F)F)nc4ccccc43)n2)CC1 [1B9, 4-(4-(2-(difluoromethyl)-1H-benzo[d]imidazol-1-yl)-6-(4-(2-fluorophenoxy)piperidin-1-yl)-1,3,5-triazin-2-yl)morpholine] |
| 50 to 70 | – | Cc1ccc(OC2CCN(c3nc(N4CCOCC4)nc(-n4c(C(F)F)nc5ccccc54)n3)CC2)cc1 [1B10, 4-(4-(2-(difluoromethyl)-1H-benzo[d]imidazol-1-yl)-6-(4-(p-tolyloxy)piperidin-1-yl)-1,3,5-triazin-2-yl)morpholine] |
| 50 to 70 | – | Cc1ccc(OC2CCN(c3nc(N4CCOCC4)nc(-n4cnc5cc(F)ccc54)n3)CC2)cc1 [1B13, 4-(4-(5-fluoro-1H-benzo[d]imidazol-1-yl)-6-(4-(p-tolyloxy)piperidin-1-yl)-1,3,5-triazin-2-yl)morpholine] |
| 50 to 70 | – | Fc1ccc2c(c1)ncn2-c1nc(N2CCOCC2)nc(N2CCC(Oc3ccc(C(F)(F)F)cc3)CC2)n1 [1B14, 4-(4-(5-fluoro-1H-benzo[d]imidazol-1-yl)-6-(4-(4-(trifluoromethyl)phenoxy)piperidin-1-yl)-1,3,5-triazin-2-yl)morpholine] |
| > 70 | > 70 | FC(F)(F)c1ccc(OC2CCN(c3nc(N4CCOCC4)nc(-n4cnc5ccccc54)n3)CC2)cc1 [1B15, 4-(4-(1H-benzo[d]imidazol-1-yl)-6-(4-(4-(trifluoromethyl)phenoxy)piperidin-1-yl)-1,3,5-triazin-2-yl)morpholine] |
| 50 to 70 | – | FC(F)(F)Oc1ccc(OC2CCN(c3nc(N4CCOCC4)nc(-n4cnc5ccccc54)n3)CC2)cc1 [1B16, 4-(4-(1H-benzo[d]imidazol-1-yl)-6-(4-(4-(trifluoromethoxy)phenoxy)piperidin-1-yl)-1,3,5-triazin-2-yl)morpholine] |
| 50 to 70 | – | Fc1ccc(OC2CCN(c3nc(N4CCOCC4)nc(-n4cnc5ccccc54)n3)CC2)cc1 [1B17, 4-(4-(1H-benzo[d]imidazol-1-yl)-6-(4-(4-fluorophenoxy)piperidin-1-yl)-1,3,5-triazin-2-yl)morpholine] |
| > 70 | > 70 | Fc1ccccc1OC1CCN(c2nc(N3CCOCC3)nc(-n3cnc4ccccc43)n2)CC1 [1B18, 4-(4-(1H-benzo[d]imidazol-1-yl)-6-(4-(2-fluorophenoxy)piperidin-1-yl)-1,3,5-triazin-2-yl)morpholine] |
| > 70 | > 70 | Clc1ccccc1OC1CCN(c2nc(N3CCOCC3)nc(-n3cnc4ccccc43)n2)CC1 [1B19, 4-(4-(1H-benzo[d]imidazol-1-yl)-6-(4-(2-chlorophenoxy)piperidin-1yl)-1,3,5-triazin-2-yl)morpholine] |
| 50 to 70 | – | FC(F)(F)c1ccccc1OC1CCN(c2nc(N3CCOCC3)nc(-n3cnc4ccccc43)n2)CC1 [1B20, 4-(4-(1H-benzo[d]imidazol-1-yl)-6-(4-(2-(trifluoromethyl)phenoxy)piperidin-1-yl)-1,3,5-triazin-2-yl)morpholine] |

The next lines start with the compound.

| Compound | inhibition at 0.5 µM [1] [%] | inhibition at 0.5 µM [2] [%] |
| --- | --- | --- |
| CN(c1ccccc1)c1nc(N2CCOCC2)nc(N2CCC(Oc3ccc(F)cc3)CC2)n1 [1A1, 4-(4-(4-fluorophenoxy)piperidin-1-yl)-N-methyl-6-morpholino-N-phenyl-1,3,5-triazin-2-amine] | 50 to 70 | – |
| CN(c1ccccc1)c1nc(N2CCOCC2)nc(N2CCC(Oc3ccccc3F)CC2)n1 [1A2, 4-(4-(2-fluorophenoxy)piperidin-1-yl)-N-methyl-6-morpholino-N-phenyl-1,3,5-triazin-2-amine] | 50 to 70 | – |
| CN(c1ccc(F)cc1)c1nc(N2CCOCC2)nc(N2CCC(Oc3ccc(F)cc3)CC2)n1 [1A3, 4-(4-(4-fluorophenoxy)piperidin-1-yl)-N-(4-fluorophenyl)-N-methyl-6-morpholino-1,3,5-triazin-2-amine] | > 70 | > 70 |
| O=C(N(c1ccccc1)c1nc(N2CCOCC2)nc(N2CCC(Oc3ccccc3)CC2)n1)C(F)(F)F [1A4, 2,2,2-trifluoro-N-(4-morpholino-6-(4-phenoxypiperidin-1-yl)-1,3,5-triazin-2-yl)-N-phenylacetamide] | 50 to 70 | – |
| O=C(N(c1ccc(F)cc1)c1nc(N2CCOCC2)nc(N2CCC(Oc3ccc(F)cc3)CC2)n1)C(F)(F)F [1A6, 2,2,2-trifluoro-N-(4-(4-(4-fluorophenoxy)piperidin-1-yl)-6-morpholino-1,3,5-triazin-2-yl)-N-(4-fluorophenyl)acetamide] | > 70 | > 70 |
| O=C(N(c1ccccc1)c1nc(N2CCOCC2)nc(N2CCC(Oc3ccc(C(F)(F)F)cc3)CC2)n1)C(F)(F)F [1A7, 2,2,2-trifluoro-N-(4-morpholino-6-(4-(4-(trifluoromethyl)phenoxy)piperidin-1-yl)-1,3,5-triazin-2-yl)-N-phenylacetamide] | 50 to 70 | – |
| Cc1ccc(OC2CCN(c3nc(N4CCOCC4)nc(N(C(=O)C(F)(F)F)c4ccccc4)n3)CC2)cc1 [1A8, 2,2,2-trifluoro-N-(4-morpholino-6-(4-(p-tolyloxy)piperidin-1-yl)-1,3,5-triazin-2-yl)-N-phenylacetamide] | > 70 | > 70 |
| O=C(N(c1ccccc1)c1nc(N2CCOCC2)nc(N2CCC(Oc3ccccc3C(F)(F)F)CC2)n1)C(F)(F)F [1A10, 2,2,2-trifluoro-N-(4-morpholino-6-(4-(2-(trifluoromethyl)phenoxy)piperidin-1-yl)-1,3,5-triazin-2-yl)-N-phenylacetamide] | > 70 | > 70 |
| CN(C(=O)C(F)(F)F)c1nc(N2CCOCC2)nc(N2CCC(Oc3ccccc3)CC2)n1 [1A11, 2,2,2-trifluoro-N-methyl-N-(4-morpholino-6-(4-phenoxypiperidin-1-yl)-1,3,5-triazin-2-yl)acetamide] | 50 to 70 | – |
| O=C(N(C(=O)C(F)(F)F)c1nc(N2CCOCC2)nc(N2CCC(Oc3ccccc3)CC2)n1)C(F)(F)F [1A12, 2,2,2-trifluoro-N-(4-morpholino-6-(4-phenoxypiperidin-1-yl)-1,3,5-triazin-2-yl)-N-(2,2,2-trifluoroacetyl)acetamide] | 50 to 70 | – |
| O=C(N(C(=O)C(F)(F)F)c1nc(N2CCOCC2)nc(N2CCC(Oc3ccc(F)cc3)CC2)n1)C(F)(F)F [1A13, 2,2,2-trifluoro-N-(4-(4-(4-fluorophenoxy)piperidin-1-yl)-6-morpholino-1,3,5-triazin-2-yl)-N-(2,2,2-trifluoroacetyl)acetamide] | 50 to 70 | – |
| O=C(N(C(=O)C(F)(F)F)c1nc(N2CCOCC2)nc(N2CCC(Oc3ccccc3F)CC2)n1)C(F)(F)F [1A14, 2,2,2-trifluoro-N-(4-(4-(2-fluorophenoxy)piperidin-1-yl)-6-morpholino-1,3,5-triazin-2-yl)-N-(2,2,2-trifluoroacetyl)acetamide] | > 70 | > 70 |
| CN(C(=O)C(F)(F)F)c1nc(N2CCOCC2)nc(N2CCC(Oc3ccc(F)cc3)CC2)n1 [1A15, 2,2,2-trifluoro-N-(4-(4-(4-fluorophenoxy)piperidin-1-yl)-6-morpholino-1,3,5-triazin-2-yl)-N-methylacetamide] | > 70 | > 70 |
| Cc1ccc(OC2CCN(c3nc(N(C)C)nc(N4CCOCC4)n3)CC2)cc1 [1A16, N,N-dimethyl-4-morpholino-6-(4-(p-tolyloxy)piperidin-1-yl)-1,3,5-triazin-2-amine] | 50 to 70 | – |
| CN(C)c1nc(N2CCOCC2)nc(N2CCC(Oc3ccc(F)cc3)CC2)n1 [1A17, 4-(4-(4-fluorophenoxy)piperidin-1-yl)-N,N-dimethyl-6-morpholino-1,3,5-triazin-2-amine] | 50 to 70 | – |
| c1ccc(OC2CCN(c3nc(N4CCOCC4)nc(N(c4ccccc4)c4ccccc4)n3)CC2)cc1 [1A18, 4-morpholino-6-(4-phenoxypiperidin-1-yl)-N,N-diphenyl-1,3,5-triazin-2-amine] | 50 to 70 | – |
| FC(F)(F)c1ccccc1OC1CCN(c2nc(N3CCOCC3)nc(N(c3ccccc3)c3ccccc3)n2)CC1 [1A19, 4-morpholino-N,N-diphenyl-6-(4-(2-(trifluoromethyl)phenoxy)piperidin-1-yl)-1,3,5-triazin-2-amine] | > 70 | > 70 |
| FC(F)(F)Oc1ccc(OC2CCN(c3nc(N4CCOCC4)nc(N(c4ccccc4)c4ccccc4)n3)CC2)cc1 [1A20, 4-morpholino-N,N-diphenyl-6-(4-(4-(trifluoromethoxy)phenoxy)piperidin-1-yl)-1,3,5-triazin-2-amine] | 50 to 70 | – |
| FC(F)c1nc2ccccc2n1-c1nc(N2CCOCC2)nc(N2CCC(Oc3ccc(OC(F)(F)F)cc3)CC2)n1 [1B3, 4-(4-(2-(difluoromethyl)-1H-benzo[d]imidazol-1-yl)-6-(4-(4-(trifluoromethoxy)phenoxy)piperidin-1-yl)-1,3,5-triazin-2-yl)morpholine] | 50 to 70 | – |
| FC(F)c1nc2ccccc2n1-c1nc(N2CCOCC2)nc(N2CCC(Oc3ccccc3C(F)(F)F)CC2)n1 [1B4, 4-(4-(2-(difluoromethyl)-1H-benzo[d]imidazol-1-yl)-6-(4-(2-(trifluoromethyl)phenoxy)piperidin-1-yl)-1,3,5-triazin-2-yl)morpholine] | > 70 | > 70 |
